ChEMBL document CHEMBL1150977, “A quantitative analysis of kinase inhibitor selectivity” (Nat Biotechnol, 2008)

Columns and labels:
[1] = biological target: T1, Mitogen-activated protein kinase 12 (Homo sapiens, UniProt P53778)
T1 sequence (P53778 whole entry): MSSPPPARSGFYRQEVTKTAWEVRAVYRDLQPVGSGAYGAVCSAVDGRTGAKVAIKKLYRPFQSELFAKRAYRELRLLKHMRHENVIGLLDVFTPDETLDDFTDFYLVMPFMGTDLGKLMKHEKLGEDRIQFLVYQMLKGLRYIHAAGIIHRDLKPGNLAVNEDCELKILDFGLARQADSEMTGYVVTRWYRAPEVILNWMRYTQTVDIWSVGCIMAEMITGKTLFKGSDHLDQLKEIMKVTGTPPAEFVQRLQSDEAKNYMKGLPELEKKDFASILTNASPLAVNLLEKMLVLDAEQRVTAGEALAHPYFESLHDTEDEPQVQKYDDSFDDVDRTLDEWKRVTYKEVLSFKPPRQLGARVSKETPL

[2] = biological target: Tyrosine-protein kinase FRK (Homo sapiens, UniProt P42685)
[3] = biological target: T2, Calcium/calmodulin-dependent protein kinase type IV (Homo sapiens, UniProt Q16566)
T2 sequence (Q16566 whole entry): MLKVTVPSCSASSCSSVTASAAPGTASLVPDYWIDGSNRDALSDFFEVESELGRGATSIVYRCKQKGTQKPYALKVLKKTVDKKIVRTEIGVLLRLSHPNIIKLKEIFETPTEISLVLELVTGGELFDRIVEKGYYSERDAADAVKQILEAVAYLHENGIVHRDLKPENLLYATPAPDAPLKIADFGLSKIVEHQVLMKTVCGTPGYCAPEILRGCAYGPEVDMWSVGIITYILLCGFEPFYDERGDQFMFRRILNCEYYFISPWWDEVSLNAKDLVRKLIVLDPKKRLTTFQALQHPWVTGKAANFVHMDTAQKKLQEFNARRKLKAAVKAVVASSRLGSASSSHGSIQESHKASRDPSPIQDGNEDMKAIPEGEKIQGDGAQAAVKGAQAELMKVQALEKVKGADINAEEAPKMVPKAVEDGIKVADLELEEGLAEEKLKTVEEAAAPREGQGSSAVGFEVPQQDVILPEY

[4] = biological target: Receptor-type tyrosine-protein kinase FLT3 (Homo sapiens, UniProt P36888, D835H)
[5] = biological target: T3, Ankyrin repeat and protein kinase domain-containing protein 1 (Homo sapiens, UniProt Q8NFD2)
T3 sequence (Q8NFD2 whole entry): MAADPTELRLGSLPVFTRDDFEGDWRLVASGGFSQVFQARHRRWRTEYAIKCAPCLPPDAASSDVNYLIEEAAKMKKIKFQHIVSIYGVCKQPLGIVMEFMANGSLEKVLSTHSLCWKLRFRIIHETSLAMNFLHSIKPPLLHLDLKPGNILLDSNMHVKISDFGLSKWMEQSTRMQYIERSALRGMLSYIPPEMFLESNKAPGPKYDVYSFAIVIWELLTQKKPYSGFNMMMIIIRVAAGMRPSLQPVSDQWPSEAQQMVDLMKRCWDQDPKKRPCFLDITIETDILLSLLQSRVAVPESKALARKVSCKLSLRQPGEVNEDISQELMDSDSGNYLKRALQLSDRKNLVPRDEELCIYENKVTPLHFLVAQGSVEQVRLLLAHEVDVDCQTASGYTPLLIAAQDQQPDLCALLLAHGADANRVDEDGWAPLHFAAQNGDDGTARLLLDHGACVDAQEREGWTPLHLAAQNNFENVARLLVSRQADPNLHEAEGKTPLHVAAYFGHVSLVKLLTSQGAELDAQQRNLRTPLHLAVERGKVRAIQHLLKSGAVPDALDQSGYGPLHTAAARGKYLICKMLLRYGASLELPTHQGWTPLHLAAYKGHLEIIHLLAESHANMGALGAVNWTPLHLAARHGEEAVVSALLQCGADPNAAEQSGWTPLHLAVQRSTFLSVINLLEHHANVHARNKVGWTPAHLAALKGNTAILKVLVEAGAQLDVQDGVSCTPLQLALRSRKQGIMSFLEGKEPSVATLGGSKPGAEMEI

[6] = biological target: T4, Discoidin domain-containing receptor 2 (Homo sapiens, UniProt Q16832)
T4 sequence (Q16832 whole entry): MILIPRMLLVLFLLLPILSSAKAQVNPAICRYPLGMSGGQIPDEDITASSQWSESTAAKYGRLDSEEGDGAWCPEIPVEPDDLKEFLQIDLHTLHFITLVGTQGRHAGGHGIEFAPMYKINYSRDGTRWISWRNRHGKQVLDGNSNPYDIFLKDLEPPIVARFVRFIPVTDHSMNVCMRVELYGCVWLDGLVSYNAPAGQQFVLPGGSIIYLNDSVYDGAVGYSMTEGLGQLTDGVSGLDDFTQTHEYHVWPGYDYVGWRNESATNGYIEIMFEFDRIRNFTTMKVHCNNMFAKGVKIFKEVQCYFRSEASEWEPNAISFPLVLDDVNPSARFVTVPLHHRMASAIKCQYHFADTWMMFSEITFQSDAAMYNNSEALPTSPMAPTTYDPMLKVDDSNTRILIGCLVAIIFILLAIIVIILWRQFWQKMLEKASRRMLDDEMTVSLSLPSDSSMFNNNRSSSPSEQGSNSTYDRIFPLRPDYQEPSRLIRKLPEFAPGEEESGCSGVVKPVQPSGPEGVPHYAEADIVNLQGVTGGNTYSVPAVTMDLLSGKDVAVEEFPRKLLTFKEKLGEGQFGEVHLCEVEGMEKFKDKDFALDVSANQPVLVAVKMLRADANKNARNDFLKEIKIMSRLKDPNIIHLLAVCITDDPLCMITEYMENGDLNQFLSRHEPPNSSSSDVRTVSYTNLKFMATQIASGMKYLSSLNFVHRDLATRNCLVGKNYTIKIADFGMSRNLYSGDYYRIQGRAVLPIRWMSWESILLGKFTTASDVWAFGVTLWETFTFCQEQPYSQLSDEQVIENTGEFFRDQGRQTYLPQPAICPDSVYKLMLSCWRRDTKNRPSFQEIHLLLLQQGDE

[7] = biological target: Dual specificity protein kinase CLK2 (Homo sapiens, UniProt P49760)
[8] = biological target: Epidermal growth factor receptor (Homo sapiens, UniProt P00533, S752-I759DEL)
[9] = biological target: Epidermal growth factor receptor (Homo sapiens, UniProt P00533, L861Q)
[10] = biological target: Epidermal growth factor receptor (Homo sapiens, UniProt P00533, L747-S752DEL/P753S)
[11] = biological target: Epidermal growth factor receptor (Homo sapiens, UniProt P00533, A750P/L747-E749DEL)
[12] = biological target: Epidermal growth factor receptor (Homo sapiens, UniProt P00533, L858R)

Row | Compound | Kd [1] [µM] | Kd [2] [µM] | Kd [3] [µM] | Kd [4] [µM] | Kd [5] [µM] | Kd [6] [µM] | Kd [7] [µM] | Kd [8] [µM] | Kd [9] [µM] | Kd [10] [µM] | Kd [11] [µM] | Kd [12] [µM]
1 | COCC(=O)NC/C=C/c1ccc2ncnc(Nc3ccc(Oc4ccc(C)nc4)c(C)c3)c2c1 [CP-724714] | > 10 | > 10 | > 10 | > 10 | > 10 | > 10 | > 10 |  |  |  |  | 
2 | Nc1nc(Nc2ccc(S(N)(=O)=O)cc2)nn1C(=O)c1c(F)cccc1F [JNJ-7706621] | > 10 | > 10 | > 10 |  |  | > 10 |  | > 10 | > 10 | > 10 | > 10 | > 10
3 | CCOc1cc2ncc(C#N)c(Nc3ccc(F)c(Cl)c3)c2cc1NC(=O)/C=C/CN(C)C [PELITINIB] | > 10 |  | > 10 |  | > 10 | > 10 | 1.8 |  |  |  |  | 
4 | Oc1ccc(-c2nc(-c3ccncc3)c(-c3ccc(F)cc3)[nH]2)cc1 [SB-202190] |  | 3.1 | > 10 | > 10 | > 10 | 1.6 | > 10 |  |  |  |  | 
5 | NC(=O)c1ccc(-c2nc(-c3ccc4c(c3)OCO4)c(-c3ccccn3)[nH]2)cc1 [SB-431542] | > 10 | > 10 | > 10 |  | > 10 | > 10 | > 10 | > 10 | > 10 | > 10 | > 10 | > 10
